In PubChem BioAssay (NCI):
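Interpolation was linear, between the two tested concentrations surrounding the appropriate level; five concentrations were tested over 48 hours in 96-well plates. At the GI50, growth is halved. TGI: concentration producing complete growth inhibition.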

Assays:
Test in all cases: inhibition of tumour cell growth, NCI panel, 48 h
CCRF-CEM leukemia = test system: CCRF-CEM leukemia
EKVX NSCLC = test system: EKVX NSCLC
HOP-92 NSCLC = test system: HOP-92 NSCLC
HT29 colon = test system: HT29 colon
K-562 leukemia = test system: K-562 leukemia
SK-MEL-5 melanoma = test system: SK-MEL-5 melanoma
U251 CNS = test system: U251 CNS
UACC-62 melanoma = test system: UACC-62 melanoma
HCT-116 colon = test system: HCT-116 colon
DU-145 prostate = test system: DU-145 prostate

SMILES | TGI (CCRF-CEM leukemia) [µM] | TGI (EKVX NSCLC) [µM] | TGI (HOP-92 NSCLC) [µM] | TGI (HT29 colon) [µM] | TGI (K-562 leukemia) [µM] | TGI (SK-MEL-5 melanoma) [µM] | TGI (U251 CNS) [µM] | TGI (UACC-62 melanoma) [µM] | TGI (HCT-116 colon) [µM] | GI50 (DU-145 prostate) [µM] | TGI (DU-145 prostate) [µM] | GI50 (EKVX NSCLC) [µM] | GI50 (HOP-92 NSCLC) [µM] | GI50 (HT29 colon) [µM] | GI50 (SK-MEL-5 melanoma) [µM] | GI50 (U251 CNS) [µM] | GI50 (UACC-62 melanoma) [µM]
CC1C[C@@H]2C(=O)NC(=O)[C@@H]2c2c1c1ccccc1n2C (stereo not given in full) | > 100 | > 100 | > 100 | > 100 | > 100 | > 100 | > 100 | > 100 | – | – | – | – | – | – | – | – | –
CCc1cccc(C(C)C)c1NC(=O)C(=O)C(CC(=O)Nc1ccc(Cl)c(Cl)c1)C(=O)OC (stereo not given) | > 100 | > 100 | > 100 | > 100 | > 100 | > 100 | > 100 | 6.77 | > 100 | – | – | – | – | – | – | – | –
Cc1ccc(S(=O)(=O)OCC23CCC(CC2)C2CC23)cc1 (stereo not given) | > 100 | – | 87.5 | > 100 | > 100 | 75.4 | > 100 | > 100 | > 100 | – | – | – | – | – | – | – | –
C1CCN(c2nc(=[N+]3CCCCC3)ss2)CC1 | > 100 | > 100 | > 100 | > 100 | > 100 | > 100 | > 100 | > 100 | > 100 | – | – | – | – | – | – | – | –
COC(=O)CCC(=O)CC(=O)C(=O)Nc1c(Cl)cc([N+](=O)[O-])cc1Cl | > 100 | > 100 | > 100 | > 100 | > 100 | > 100 | > 100 | > 100 | > 100 | – | – | – | – | – | – | – | –
CN(C)c1ccc(Nc2cc(-c3cccc(OC(F)(F)F)c3)nc3ccc(N4CCCC4)cc23)cc1 | – | 6.05 | 3.71 | 4.59 | – | 3.3 | 3.16 | 3.29 | – | 2.82 | 7.91 | 2.16 | 1.71 | 2.18 | 1.82 | 1.74 | 1.8
COCCCNC(=O)CC(=O)NCCCOC | > 100 | > 100 | > 100 | > 100 | > 100 | > 100 | > 100 | > 100 | > 100 | – | – | – | – | – | – | – | –
c1cc(CNCCN2CCNCC2)ccn1 | – | > 100 | > 100 | > 100 | > 100 | > 100 | > 100 | > 100 | > 100 | – | > 100 | – | – | – | – | – | –
O=C1C2C3C=CC(C2C(=O)N1COP(=O)(O)O)C1C2C(=O)N(COP(=O)(O)O)C(=O)C2C31 (stereo not given) | > 60.7 | > 100 | > 100 | > 100 | > 100 | > 100 | > 100 | > 100 | > 57.6 | – | – | – | – | – | – | – | –
CCCCCCCCCCCCCP(=O)(O)OCC | > 100 | > 100 | > 100 | > 100 | – | > 100 | > 100 | > 100 | > 100 | – | – | – | – | – | – | – | –
O=C(O)/C(=C/C=C/c1ccccc1)c1csc(-c2nc(/C(=C\C=C\c3ccccc3)C(=O)O)cs2)n1 | 45.6 | > 100 | 59.9 | > 100 | 54.6 | 86.3 | > 100 | 98.1 | 40.8 | – | – | – | – | – | – | – | –
C=C(Br)N(CC)CC | > 100 | > 100 | > 100 | > 100 | > 100 | > 100 | > 100 | > 100 | > 100 | – | – | – | – | – | – | – | –
